“Also recorded” adds a separate entry of the source.
Assays:
[1] = Body weights of male F344 rats fed the experimental diets; format: in vivo; details: for Body wt, Initial (Wk 0) / Body wt, wk 4 / Body wt, wk 8 / Body wt, wk 16 / Body wt, wk 22 / Body wt, wk 30 / Body wt, wk 37 (at termination): 25 ppm in diet, Mean ± SD
Excerpt: (§1) Experimental Procedure. Male F344 rats received at weaning were quarantined for 10 days and given access to AIN-76A semipurified diet (control diet). They were then be randomly allocated by weight to one of three dietary groups (control diet and 25 ppm BSC and 25 ppm benzylthiocyanate ("BTC") diets). […] Therefore one of our goals was to compare BSC with its sulfur analog BTC. Each dietary group was divided into AOM-treated (27 animals per subgroup) and vehicle-treated (12 animals per subgroup) subgroups and housed in plastic cages with filter tops in the animal holding room under controlled environmental conditions.
(§2) Beginning at 5 wk of age, groups of rats fed the control diet were transferred to diets containing 25 ppm BSC or 25 ppm BTC. At 7 wk of age, the animals in each group, except the vehicle-treated controls, received two weekly s.c. injections of AOM at a dose level of 15 mg/kg body weight/wk. Vehicle controls were treated with an equal volume of normal saline. One wk after AOM or saline treatment, animals receiving the BSC and BTC diets were transferred to the control diets and continued on this diet until the termination of the experiment. The 1-wk delay before transferring to control diet was to ensure complete metabolism and excretion of the carcinogen. The animals receiving the control diet continued on the same diet. The experiment was terminated 34 wk after the last AOM injection.
(§3) Body weights were recorded weekly until the animals reach 16 wk of age and then every 4 wk. Six vehicle-treated animals randomly chosen from each dietary group while they were consuming experimental and control diets were used for tissue and blood plasma glutathione peroxidase analysis.

[2] = system: azoxymethane-induced colon tumors; assay: AOM-induced colon tumor incidence and multiplicity (initiation phase feeding); format: in vivo, male F344 rats
Excerpt: as §1, §2
(§4) Both AOM-and vehicle-treated animals were sacrificed by CO2 euthanasia. Following laparotomy, the entire stomach, small intestine, and large intestine were resected and opened longitudinally, and the contents flushed with normal saline. The location, number, and size of the colon and small intestinal tumors were noted grossly under the dissection microscope. All other organs, including liver and kidneys, were also examined grossly for tumors. Tissues were fixed in 10% buffered formalin, embedded in paraffin blocks, and processed by routine histological methods with the use of eosin and hematoxylin stains.
(§5) Statistical Analysis. The data on tumor incidence were analyzed statistically by the x^2 method and Fischer's exact probability test, and tumor multiplicity was analyzed by Student's t test. Biochemical results were analyzed by Student's t test.
(§6) Using the above-identified procedures, a study was made of the effect of feeding benzylselenocyanate and its sulfur analogue, benzylthiocyanate, two (2) weeks before, during and until one (1) week after carcinogen administration (initiation phase) on intestinal carcinogenesis induced by azoxymethane (CAS: 25843-45-2) in male F344 rats.

[3] = system: azoxymethane-induced small intestinal tumors; assay: AOM-induced small intestinal tumor incidence and multiplicity; format: in vivo, male F344 rats
Excerpt: as §1, §2, §4, §5, §6

[4] = system: azoxymethane-induced ear duct tumors; assay: AOM-induced ear duct tumor incidence; format: in vivo, male F344 rats; details: 25 ppm in diet; AOM treated
Excerpt: as §1, §2
as §4, with “Tissues were fixed in 10% buffered formalin, embedded in paraffin blocks, and processed by routine histological methods with the use of eosin and hematoxylin stains.” left out
as §5

[5] = system: azoxymethane-induced metastasis; assay: AOM-induced metastasis; format: in vivo, male F344 rats
Excerpt: as §1, §2, §4

[6] = system: selenium-dependent glutathione peroxidase; assay: Selenium-dependent glutathione peroxidase activity in tissues of rats fed the diets; format: in vivo, male F344 rats
Procedure: as §3
Biochemical Determination. For the determination of tissue and blood plasma glutathione peroxidase activity, 6 vehicle-treated animals from each dietary group, while the animals were on experimental and control diets, were used. Before sacrificing the animals, blood was obtained under ether anesthesia by cardiac puncture with a syringe. They were then decapitated,and liver, kidneys, small intestine, and colon were rapidly removed. The liver was perfused with ice-cold normal saline. The small intestine and colon were slit open longitudinally and freed from all the contents, and the mucosa was scraped with a microscope glass slide. The liver and kidneys were trimmed free of connective tissue, minced with scissors, and homogenized for 10 s in 3 volumes of buffer, pH 7.3 (0.25 sucrose-10 mM EDTA-50 mM potassium phosphate) using a Brinkman Polytron at low speed. The colonic and small intestinal mucosal scrapings were immediately placed into 3 volumes of the same buffer and homogenized similarly. The homogenates were centrifuged in a Sorvall RC-2B centrifuge at 10,000×g, 4° C., for 20 min. The supernatant was centrifuged in a Beckman Ultracentrifuge at 100,000×g, 4° C., for 1 h. The resulting cytosol fraction was used for determination of glutathione peroxidase activity and protein.
Glutathione peroxidase activity was determined spectrophotometrically according to a modification of the enzyme-coupled assay procedure of Paglia and Valentine. The reaction mixture consisted of 50 mM potassium phosphate buffer (pH 7.0), 1 mM EDTA, 0.2 mM NADPH, 1 enzyme unit/ml oxidized glutathione-reductase, 1 mM glutathione, and 1.5 mM cumene hydroperoxide in a total volume of 1 ml. The cytosol was added to the above mixture and allowed to incubate 5 min. at room temperature. Total glutathione peroxide was measured with cumene hydroperoxide as a substrate. Selenium-dependent glutathione peroxide was measured with tert-butyl hydroperoxide. The reaction was started with the addition of substrate solution. Absorbance was measured at 340 nm, and activity was measured from the slope of the lines as mol NADPH oxidized/min/mg protein. Blank reactions without cytosol were run simultaneously. Protein concentration in the cytosol fraction was measured by the method of Lowry et al. with bovine serum albumin as standard.
as §5

[7] = system: non-selenium-dependent glutathione peroxidase; assay: Non-selenium-dependent glutathione peroxidase activity in tissues of rats fed the diets; format: in vivo, male F344 rats; details: among the dietary groups
Procedure: as §3
Biochemical Determination. For the determination of tissue and blood plasma glutathione peroxidase activity, 6 vehicle-treated animals from each dietary group, while the animals were on experimental and control diets, were used. Before sacrificing the animals, blood was obtained under ether anesthesia by cardiac puncture with a syringe. They were then decapitated,and liver, kidneys, small intestine, and colon were rapidly removed. The liver was perfused with ice-cold normal saline. […]
Glutathione peroxidase activity was determined spectrophotometrically according to a modification of the enzyme-coupled assay procedure of Paglia and Valentine. […] Total glutathione peroxide was measured with cumene hydroperoxide as a substrate. Selenium-dependent glutathione peroxide was measured with tert-butyl hydroperoxide. […] Absorbance was measured at 340 nm, and activity was measured from the slope of the lines as mol NADPH oxidized/min/mg protein. […] Protein concentration in the cytosol fraction was measured by the method of Lowry et al. with bovine serum albumin as standard.

[8] = General toxicity observation in rats fed the diets; format: in vivo, male F344 rats; details: 25 ppm in diet
Excerpt: as §1, §2, §3

[9] = LD50 in rats; details: rat, in vivo
Excerpt: (§7) The instant invention may open new approaches to the development of effective and less toxic novel selenium-containing chemopreventive agents. For example, although is too early to determine definitively the optimum dose which will be suitable for human use, we can estimate a dose based on the LD50 of BSC in rats (lethal dose at which 50% of the rats die). […] An order of magnitude of ten (10) times less than the LD50 may be appropriate for humans.

[10] = LD50 in humans, extrapolated from rats; design: unit not given here; details: extrapolated: 125×70^0.75
Excerpt: as §7

[11] = system: benzo(a) pyrene-induced forestomach tumors; details: mice; cited from earlier work
[12] = system: azoxymethane ("AOM")-induced colon, kidney, and hepatocarcinogenesis; details: 50 ppm in semipurified high fat diet, 2 wk before, during, 1 wk after carcinogen, liver; cited from earlier work
[13] = 6 ppm selenium in the form of selenomethionine; cited from earlier work
[14] = system: cancer induced by a variety of chemical carcinogens; details: diet or drinking water; colon, mammary gland, pancreas; cited from earlier work
[15] = system: colon carcinogenesis; details: initiation phase; cited from earlier work
[16] = rat, in vivo; cited from earlier work
[17] = 25 ppm in diet 2 wk before to 1 wk after AOM
[18] = 25 ppm in diet, 27 (BSC) or 26 (BTC) animals/group
[19] = 25 ppm in diet 5 wk, Mean ± SE (n = 6)

N#C[Se]Cc1ccccc1 [BSC, benzylselenocyanate]
Body weights of animals fed experimental vs control diets ([1]; AOM or vehicle treated, in words): comparable
Body wt, Initial (Wk 0) ([1]; AOM treated): 40 ± 4 g
Body wt, wk 4 ([1]; AOM treated): 174 ± 9 g
Body wt, wk 8 ([1]; AOM treated): 279 ± 15 g
Body wt, wk 16 ([1]; AOM treated): 348 ± 16 g
Body wt, wk 22 ([1]; AOM treated): 390 ± 21 g
Body wt, wk 30 ([1]; AOM treated): 430 ± 20 g
Body wt, wk 37 (at termination) ([1]; AOM treated): 449 ± 22 g
Body wt, Initial (Wk 0) ([1]; Vehicle treated): 41 ± 4 g
Body wt, wk 4 ([1]; Vehicle treated): 179 ± 12 g
Body wt, wk 8 ([1]; Vehicle treated): 284 ± 19 g
Body wt, wk 16 ([1]; Vehicle treated): 364 ± 19 g
Body wt, wk 22 ([1]; Vehicle treated): 402 ± 20 g
Body wt, wk 30 ([1]; Vehicle treated): 448 ± 26 g
Body wt, wk 37 (at termination) ([1]; Vehicle treated): 467 ± 21 g
Colon tumor incidence, Adenocarcinoma [2, 17]: 11 % of animals with tumors
Colon tumor incidence, Adenoma [2, 17]: 44 % of animals with tumors
Colon tumor incidence, Total (adenomas plus adenocarcinomas) [2, 17]: 48 % of animals with tumors
Number of animals with colon tumors, Adenocarcinoma [2, 18]: 3 number of animals
Number of animals with colon tumors, Adenoma [2, 18]: 12 number of animals
Number of animals with colon tumors, Total [2, 18]: 13 number of animals
Colon tumor multiplicity, Adenocarcinoma ([2]; 25 ppm in diet, Mean ± SD): 0.11 ± 0.3 no. of tumors/animals
Colon tumor multiplicity, Adenoma ([2]; 25 ppm in diet, Mean ± SD): 0.70 ± 0.9 no. of tumors/animals
Colon tumor multiplicity, Total ([2]; 25 ppm in diet, Mean ± SD): 0.81 ± 1.0 no. of tumors/animals
Number of tumors per group, colon Adenocarcinoma ([2]; 25 ppm in diet, in parentheses): 3 number of tumors per group
Inhibition of AOM-induced colon tumors (in words) ([2]; initiation phase of carcinogenesis): inhibits AOM-induced tumors in the colon; also recorded: inhibited colon tumors during the initiation phase of carcinogenesis
Incidence of adenocarcinomas of the colon (in words) ([2]; vs control diet): significantly lower in rats fed the BSC diet than in those fed the control diet; also recorded: significantly inhibits
Incidence of total colon tumors (in words) ([2]; vs control diet): significantly lower in rats fed the BSC diet than in those fed the control diet
Number of colon adenocarcinomas per animal (in words) ([2]; vs control diet and BTC diet): significally inhibited in animals fed the BSC diet compared to those fed the control diet and BTC diet; also recorded: significantly inhibits
Number of total colon tumors per animal (in words) ([2]; vs control diet and BTC diet): significally inhibited in animals fed the BSC diet compared to those fed the control diet and BTC diet
Multiplicity of colon adenomas (in words) ([2]; vs control diet and BTC diet, not statistically significant): slight inhibition of multiplicity of adenomas in the BSC diet as compared to the control diet and BTC diet
Small intestinal tumor incidence, Adenocarcinoma [3, 17]: 15 % of animals with tumors
Small intestinal tumor incidence, Adenoma [3, 17]: 4 % of animals with tumors
Small intestinal tumor incidence, Total [3, 17]: 19 % of animals with tumors
Number of animals with small intestinal tumors, Adenocarcinoma [3, 18]: 4 number of animals
Number of animals with small intestinal tumors, Adenoma [3, 18]: 1 number of animals
Number of animals with small intestinal tumors, Total [3, 18]: 5 number of animals
Small intestinal tumor multiplicity, Adenocarcinoma ([3]; 25 ppm in diet, Mean ± SD): 0.15 0.3 no. of tumors/animal
Small intestinal tumor multiplicity, Adenoma ([3]; 25 ppm in diet, Mean ± SD): 0.04 0.2 no. of tumors/animal
Small intestinal tumor multiplicity, Total ([3]; 25 ppm in diet, Mean ± SD): 0.19 0.3 no. of tumors/animal
Incidence of small intestinal adenocarcinomas (in words) ([3]; differences among groups not significant): slightly reduced the incidence of small intestinal adenocarcinomas
Inhibition of AOM-induced tumors in the small intestine (in words) ([3]; rat, in vivo): to a certain extent, in the small intestine
Small intestinal tumor multiplicity, total (in words) ([3]; vs BTC diet and control diet): significantly inhibited in animals fed the BSC diet compared to those fed the BTC diet and control diet
Multiplicity of small intestinal adenocarcinomas (in words) ([3]; vs control diet): significant inhibition in the multiplicity of small intestinal adenocarcinomas; also recorded: significantly inhibits
% of animals with ear duct tumors [4]: 7 % of animals
No. of animals with metastasis ([5]; 25 ppm in diet, AOM treated): 0 No. of animals
AOM-induced metastasis (in words) ([5]; several organs): inhibits AOM-induced metastasis in several organs; also recorded: none of the animals in BSC and BTC diet groups developed metastasis
Selenium-dependent glutathione peroxidase activity, Kidney [6, 19]: 1.70 0.29 μmol NADPH oxidized/min/mg protein
Selenium-dependent glutathione peroxidase activity, Liver [6, 19]: 1.88 0.60 μmol NADPH oxidized/min/mg protein
Selenium-dependent glutathione peroxidase activity, Plasma [6, 19]: 0.78 0.14 μmol NADPH oxidized/min/mg protein
Selenium-dependent glutathione peroxidase activity, Colon ([6]; 25 ppm in diet 5 wk, colonic mucosa, Mean ± SE (n = 6)): 0.56 0.14 μmol NADPH oxidized/min/mg protein
Selenium-dependent glutathione peroxidase activity, Small intestine ([6]; 25 ppm in diet 5 wk, small intestinal mucosa, Mean ± SE (n = 6)): 0.71 0.13 μmol NADPH oxidized/min/mg protein
Selenium-dependent glutathione peroxidase activity (in words) ([6]; kidney, colon and small intestine): increase in selenium-dependent glutathione peroxidase activity in the kidney, colon, and small intestine; also recorded: significant increase in the enzyme activity in kidney and colonic and small intestinal mucosae of animals fed the BSC diet compared to that in those animals fed the BTC diet and control diet
Selenium-dependent glutathione peroxidase activity (in words) ([6]; liver and plasma): no effect on this enzyme activity in the liver and plasma; also recorded: not affected
Non-selenium-dependent glutathione peroxidase activity (in words) [7]: no differences in the activity of non-selenium-dependent glutathione peroxidase activity among the dietary groups
Evidence of toxicity in animals fed the diet [8]: no evidence of toxicity
LD50 [9]: 125 mg/kg
approximate LD50 in humans [10]: ~3025
Inhibition of benzo(a)pyrene-induced forestomach tumors [11]: effective inhibitors of benzo(a) pyrene-induced forestomach tumors in mice

COc1ccc([SeH])cc1 [MBS, p-methoxybenzenenselenol, reference compound]
Inhibition of benzo(a)pyrene-induced forestomach tumors [11]: effective inhibitors of benzo(a) pyrene-induced forestomach tumors in mice
Inhibition of AOM-induced carcinogenesis [12]: inhibited azoxymethane ("AOM")-induced colon, kidney, and hepatocarcinogenesis in rats

C[Se]CC[C@H](N)C(=O)O [selenomethionine]
Liver damage [13]: caused liver damage as indicated by extensive necrosis and fibrosis

O=[Se](O)O [sodium selenite]
Protection against cancer induction [14]: protects against cancer induced by a variety of chemical carcinogens
Inhibition of colon carcinogenesis [15]: does not inhibit colon carcinogenesis during the initiation phase
Toxicity relative to BSC [16]: more toxic than BSC

Reference: patent US4988517A, “Method and composition for inhibiting colon carcinogenesis” (American Health Foundation, priority 1988, dated 1991)
